Test results published in publication PMC5845541, “Novel Sodium Channel Inhibitor From Leeches” (Frontiers in Pharmacology, 2018).
Positions of bridges follow the written chain, without caps; N, C: chain ends. Residues, ends and D or L forms follow the SMILES beside them.

Experiments:
rNaV1.8 (rat NaV1.8) = rNaV1.8 (rat NaV1.8) (Rattus norvegicus, UniProt Q62968); test: cell-based
mNaV1.9 (mouse NaV1.9) = target: T1, mNaV1.9 (mouse NaV1.9) (Mus musculus, UniProt Q9R053); test: cell-based; settings: NaV1.8-null mouse small DRG neurons, 300 nM TTX; 100-ms step to –40 mV from holding potential –110 mV; variable slope fit; room temperature; mean ± SEM; read-out: IC50 for inhibition of mNaV1.9 currents
T1 construct: Representative current traces of mNaV1.9, recorded from the NaV1.8-null mouse small DRG neurons; endogenous in cells; host or cells: small DRG neurons of NaV1.8-null mice
T1 sequence (Q9R053 whole entry): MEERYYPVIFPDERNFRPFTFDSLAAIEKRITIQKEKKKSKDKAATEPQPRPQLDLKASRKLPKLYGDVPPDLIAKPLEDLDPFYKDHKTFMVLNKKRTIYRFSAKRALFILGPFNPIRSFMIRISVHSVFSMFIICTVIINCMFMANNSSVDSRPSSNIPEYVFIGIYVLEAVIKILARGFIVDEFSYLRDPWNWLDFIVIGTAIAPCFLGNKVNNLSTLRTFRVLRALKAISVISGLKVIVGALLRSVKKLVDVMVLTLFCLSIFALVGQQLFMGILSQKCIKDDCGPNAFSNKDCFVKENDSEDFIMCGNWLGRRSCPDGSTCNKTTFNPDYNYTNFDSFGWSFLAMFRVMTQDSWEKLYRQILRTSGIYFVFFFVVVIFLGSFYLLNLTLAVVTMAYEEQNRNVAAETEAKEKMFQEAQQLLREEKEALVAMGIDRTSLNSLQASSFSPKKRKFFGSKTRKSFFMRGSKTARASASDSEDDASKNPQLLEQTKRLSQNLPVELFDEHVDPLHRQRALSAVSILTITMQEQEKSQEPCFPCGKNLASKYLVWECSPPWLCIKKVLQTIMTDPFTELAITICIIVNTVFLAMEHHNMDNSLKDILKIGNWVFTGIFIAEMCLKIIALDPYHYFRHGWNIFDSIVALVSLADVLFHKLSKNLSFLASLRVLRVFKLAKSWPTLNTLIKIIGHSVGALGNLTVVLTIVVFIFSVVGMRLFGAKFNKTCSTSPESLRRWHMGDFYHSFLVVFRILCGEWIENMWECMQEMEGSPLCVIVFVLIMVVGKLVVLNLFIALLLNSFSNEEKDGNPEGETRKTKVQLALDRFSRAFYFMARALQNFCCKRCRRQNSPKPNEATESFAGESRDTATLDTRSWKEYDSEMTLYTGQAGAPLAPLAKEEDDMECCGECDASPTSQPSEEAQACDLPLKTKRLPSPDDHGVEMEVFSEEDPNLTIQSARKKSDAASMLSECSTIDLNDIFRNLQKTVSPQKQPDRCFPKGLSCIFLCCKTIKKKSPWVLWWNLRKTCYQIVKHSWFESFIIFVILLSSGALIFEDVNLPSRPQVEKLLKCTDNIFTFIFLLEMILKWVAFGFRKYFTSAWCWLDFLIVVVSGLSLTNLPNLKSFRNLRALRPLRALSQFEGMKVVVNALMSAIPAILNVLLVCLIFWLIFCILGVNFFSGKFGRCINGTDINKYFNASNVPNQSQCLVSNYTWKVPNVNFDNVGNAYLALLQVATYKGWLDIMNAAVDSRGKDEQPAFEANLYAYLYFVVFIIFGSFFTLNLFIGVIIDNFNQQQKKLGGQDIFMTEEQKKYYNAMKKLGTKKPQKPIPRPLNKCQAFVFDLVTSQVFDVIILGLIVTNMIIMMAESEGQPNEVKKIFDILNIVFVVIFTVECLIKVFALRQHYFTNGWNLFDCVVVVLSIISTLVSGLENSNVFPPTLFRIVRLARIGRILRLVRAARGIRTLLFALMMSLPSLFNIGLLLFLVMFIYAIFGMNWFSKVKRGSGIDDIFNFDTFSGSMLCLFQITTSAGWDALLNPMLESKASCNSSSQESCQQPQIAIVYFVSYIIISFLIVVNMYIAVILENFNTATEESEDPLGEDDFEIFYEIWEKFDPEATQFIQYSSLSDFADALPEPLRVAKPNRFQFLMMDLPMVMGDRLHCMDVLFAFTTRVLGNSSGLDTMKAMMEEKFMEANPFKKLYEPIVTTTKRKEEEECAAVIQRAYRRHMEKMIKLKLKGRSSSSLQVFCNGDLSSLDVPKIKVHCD

rNaV1.8 (rat NaV1.8), sequence (Q62968 whole entry): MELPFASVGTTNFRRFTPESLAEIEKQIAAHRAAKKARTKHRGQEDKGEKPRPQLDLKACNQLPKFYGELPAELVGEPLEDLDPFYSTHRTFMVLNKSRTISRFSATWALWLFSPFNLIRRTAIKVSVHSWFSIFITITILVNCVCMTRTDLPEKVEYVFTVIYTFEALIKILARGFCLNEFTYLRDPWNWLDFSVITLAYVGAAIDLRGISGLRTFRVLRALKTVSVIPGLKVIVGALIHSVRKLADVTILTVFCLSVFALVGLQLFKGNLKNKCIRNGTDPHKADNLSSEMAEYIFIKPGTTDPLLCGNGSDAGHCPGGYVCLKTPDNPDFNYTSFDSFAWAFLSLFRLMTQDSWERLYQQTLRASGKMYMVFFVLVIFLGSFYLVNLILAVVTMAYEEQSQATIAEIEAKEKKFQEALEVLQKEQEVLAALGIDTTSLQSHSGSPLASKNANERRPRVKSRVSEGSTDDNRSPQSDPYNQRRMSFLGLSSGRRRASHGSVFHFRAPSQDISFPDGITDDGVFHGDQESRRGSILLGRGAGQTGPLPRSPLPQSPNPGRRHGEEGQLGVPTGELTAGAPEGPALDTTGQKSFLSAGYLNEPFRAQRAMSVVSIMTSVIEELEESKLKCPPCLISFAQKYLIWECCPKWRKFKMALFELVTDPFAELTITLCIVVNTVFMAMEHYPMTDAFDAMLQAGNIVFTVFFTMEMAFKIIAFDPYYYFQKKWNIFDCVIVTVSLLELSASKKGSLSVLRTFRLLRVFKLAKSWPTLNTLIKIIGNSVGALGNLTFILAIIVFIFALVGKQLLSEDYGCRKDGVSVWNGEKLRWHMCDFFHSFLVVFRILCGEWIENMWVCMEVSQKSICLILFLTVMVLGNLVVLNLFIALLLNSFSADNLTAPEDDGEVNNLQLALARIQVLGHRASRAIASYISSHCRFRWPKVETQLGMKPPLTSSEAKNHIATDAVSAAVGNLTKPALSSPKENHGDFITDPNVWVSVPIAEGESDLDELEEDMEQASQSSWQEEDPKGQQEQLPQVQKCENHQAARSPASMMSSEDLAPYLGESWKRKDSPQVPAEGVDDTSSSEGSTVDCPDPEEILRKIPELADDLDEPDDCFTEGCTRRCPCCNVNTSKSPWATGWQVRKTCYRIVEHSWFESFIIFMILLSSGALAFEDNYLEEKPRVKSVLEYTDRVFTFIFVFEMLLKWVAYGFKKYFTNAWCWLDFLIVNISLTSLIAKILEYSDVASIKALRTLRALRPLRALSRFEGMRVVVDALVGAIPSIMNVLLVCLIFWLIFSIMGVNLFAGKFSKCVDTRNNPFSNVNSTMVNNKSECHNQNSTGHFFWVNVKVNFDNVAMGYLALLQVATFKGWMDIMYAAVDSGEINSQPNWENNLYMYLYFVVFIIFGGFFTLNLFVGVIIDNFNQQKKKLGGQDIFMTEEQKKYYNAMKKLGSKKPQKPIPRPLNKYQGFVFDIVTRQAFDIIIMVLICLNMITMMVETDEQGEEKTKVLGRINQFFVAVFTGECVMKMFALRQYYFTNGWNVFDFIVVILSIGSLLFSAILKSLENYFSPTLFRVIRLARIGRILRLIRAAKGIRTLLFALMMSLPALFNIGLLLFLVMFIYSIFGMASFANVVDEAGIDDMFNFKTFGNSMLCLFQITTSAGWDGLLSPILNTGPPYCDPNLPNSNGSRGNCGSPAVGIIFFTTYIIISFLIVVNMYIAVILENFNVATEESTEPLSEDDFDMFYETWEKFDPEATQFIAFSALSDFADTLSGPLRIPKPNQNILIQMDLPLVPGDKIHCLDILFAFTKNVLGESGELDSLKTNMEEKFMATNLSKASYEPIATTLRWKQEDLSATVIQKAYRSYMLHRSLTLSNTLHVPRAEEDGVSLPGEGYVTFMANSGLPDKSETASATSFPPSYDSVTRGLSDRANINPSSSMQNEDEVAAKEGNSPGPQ

CC[C@H](C)[C@H](NC(=O)[C@H](CCSC)NC(=O)[C@@H]1CCCN1C(=O)[C@@H](NC(=O)[C@@H]1CSSC[C@@H]2NC(=O)[C@H](CCC(=O)O)NC(=O)[C@H](Cc3c[nH]c4ccccc34)NC(=O)[C@H](Cc3ccc(O)cc3)NC(=O)[C@H](CCC(=O)O)NC(=O)[C@H](CCCCN)NC(=O)[C@@H](NC(=O)[C@H](C)N)CSSC[C@H](NC(=O)[C@H](Cc3ccccc3)NC(=O)[C@H](CC(C)C)NC(=O)[C@H](Cc3ccccc3)NC(=O)[C@H](C)NC(=O)CNC2=O)C(=O)N[C@@H]([C@@H](C)CC)C(=O)N[C@@H](CCC(=O)O)C(=O)NCC(=O)N[C@@H]([C@@H](C)CC)C(=O)N1)C(C)C)C(N)=O [HSTX-I] (H-ACKEYWECGAFLFCIEGICVPMI-NH2; disulfide 2-14, 8-19) gave an IC50 (rNaV1.8 (rat NaV1.8)) of roughly 2.44 µM and an IC50 (mNaV1.9 (mouse NaV1.9)) of roughly 3.3 µM.
